The results in this text go back to US10093623B2, “Cyclic amides as MetAP-2 inhibitors” (MERCK PATENT GmbH, priority 2012, dated 2018).

In this test the target is MetAP-2 (Homo sapiens, UniProt P50579). As to the kind of experiment: MetAP-2 activity measurement (coupled enzymatic reactions, Met-Arg-Ser substrate, dianisidine detection at 450 nm). The format is biochemical. Conditions: Inhibition of MetAP-2; read-out: IC50 enzyme. The method, boiled down: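 Coupled continuous assay with Met-Arg-Ser tripeptide substrate: released methionine oxidised by L-amino acid oxidase to give H2O2, which peroxidase uses to oxidise dianisidine, followed at 450 nm. Activity taken as slope of absorbance versus time over the visually linear region; dianisidine extinction coefficient converts to mol Met per time.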
MetAP-2, sequence (P50579 whole entry, species assumed): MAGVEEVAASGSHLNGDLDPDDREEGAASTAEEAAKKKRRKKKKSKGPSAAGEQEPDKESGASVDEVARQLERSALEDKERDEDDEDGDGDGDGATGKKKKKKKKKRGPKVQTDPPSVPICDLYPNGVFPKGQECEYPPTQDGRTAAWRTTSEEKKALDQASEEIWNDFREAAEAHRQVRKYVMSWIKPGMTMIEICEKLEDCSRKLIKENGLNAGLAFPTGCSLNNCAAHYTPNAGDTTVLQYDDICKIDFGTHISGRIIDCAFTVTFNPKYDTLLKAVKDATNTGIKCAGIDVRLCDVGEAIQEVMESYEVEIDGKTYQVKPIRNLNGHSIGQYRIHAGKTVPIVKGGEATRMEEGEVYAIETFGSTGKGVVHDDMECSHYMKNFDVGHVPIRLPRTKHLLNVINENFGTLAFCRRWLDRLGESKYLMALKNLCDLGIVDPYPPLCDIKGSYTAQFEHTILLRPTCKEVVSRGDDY

The IC50 is the concentration needed to halve the response being measured. Take `CC(=O)Nc1ccc(N2CCC(O)(C(=O)NCc3cccc(F)c3Cl)C2=O)cn1` (centres unmarked) [A186, N-(2-Chloro-3-fluorobenzyl)-1-(6-acetylaminopyridin-3-yl)-3-hydroxy-2-oxopyrrolidine-3-carboxamide]: the IC50 lay within 10 to 1000 nM.

As to `NC(=O)c1cccc(N2CCC(O)(C(=O)NCCc3cccc(F)c3)C2=O)c1` (centres unmarked) [A177, N-[2-(3-Fluorophenyl)ethyl]-1-(3-carbamoylphenyl)-3-hydroxy-2-oxopyrrolidine-3-carboxamide], the IC50 fell in the range of 10 to 1000 nM. The figure for `NC(=O)c1cncc(N2CCC(O)(C(=O)NCc3cc(F)cc(Cl)c3)C2=O)c1` (centres unmarked) [A216, 5-[3-(3-Chloro-5-fluorobenzylcarbamoyl)-3-hydroxy-2-oxopyrrolidin-1-yl]-nicotinamide] is 10 to 1000 nM; for `O=C1CCc2cc(N3CC[C@](O)(C(=O)NCc4cc(F)c(F)cc4F)C3=O)ccc2N1` [A245, N-(2,4,5-Trifluorobenzyl)-(S)-3-hydroxy-2-oxo-1-(2-oxo-1,2,3,4-tetrahydroquinolin-6-yl)-pyrrolidine-3-carboxamide] it is 10 to 1000 nM; for `O=C(NCCCO)c1cccc(N2CC[C@](O)(C(=O)NCc3cc(F)cc(Cl)c3)C2=O)c1` [A94, N-(3-Chloro-5-fluorobenzyl)-(S)-3-hydroxy-1-[3-(3-hydroxy-propylcarbamoyl)phenyl]-2-oxo-pyrrolidine-3-carboxamide] it is 10 to 1000 nM.

Turning to `O=C1CCc2cc(NC(=O)C3(O)CCN(c4ccc5c(c4)CCC(=O)N5)C3=O)ccc2N1` (centres unmarked) [B50, N-(2-Oxo-1,2,3,4-tetrahydro-quinolin-6-yl)-3-hydroxy-2-oxo-1-(2-oxo-1,2,3,4-tetrahydro-quinolin-6-yl)pyrrolidine-3-carboxamide], the IC50 was > 10000 nM.

Take `CNS(=O)(=O)c1ccc(N2CC[C@](O)(C(=O)NCc3cc(F)cc(Cl)c3)C2=O)cc1` [B141, N-(3-Chloro-5-fluorobenzyl)-(S)-3-hydroxy-1-(4-methylsulfamoyl-phenyl)-2-oxopyrrolidine-3-carboxamide]: the IC50 lay in the range of 10 to 1000 nM. In the case of `Cc1cc2cc(N3CC[C@](O)(C(=O)NCc4cc(F)cc(Cl)c4)C3=O)cnc2[nH]1` [B62, N-(3-Chloro-5-fluorobenzyl)-(S)-3-hydroxy-1-(2-methyl-1H-pyrrolo[2,3-b]pyridin-5-yl)-2-oxo-pyrrolidine-3-carboxamide] it was 10 to 1000 nM.

For the compound `O=C(NCc1cc(F)cc(Cl)c1)[C@@]1(O)CCN(c2ccc3cc[nH]c3c2)C1=O` [A153, N-(3-Chloro-5-fluorobenzyl)-(S)-3-hydroxy-1-(1H-indol-6-yl)-2-oxopyrrolidine-3-carboxamide], the IC50 lay in the range of 10 to 1000 nM. The figure for `NC(=O)c1cccc(N2CCC(O)(C(=O)NCCc3ccccc3F)C2=O)c1` (centres unmarked) [A179, N-[2-(2-Fluorophenyl)ethyl]-1-(3-carbamoylphenyl)-3-hydroxy-2-oxopyrrolidine-3-carboxamide] is 10 to 1000 nM; for `O=C1CCc2cc(N3CC[C@@](O)(C(=O)NCCc4cc(F)cc(Cl)c4)C3=O)ccc2N1` [A150, N-[2-(3-Chloro-5-fluorophenyl)-ethyl]-(R)-3-hydroxy-2-oxo-1-(2-oxo-1,2,3,4-tetrahydroquinolin-6-yl)pyrrolidine-3-carboxamide] it is > 10000 nM; for `COCCn1cc(N2CCC(O)(C(=O)NCc3cc(F)cc(Cl)c3)C2=O)cn1` (centres unmarked) [B82, N-(3-Chloro-5-fluorobenzyl)-3-hydroxy-1-[1-(2-methoxyethyl)-1H-pyrazol-4-yl]-2-oxo-pyrrolidine-3-carboxamide] it is 10 to 1000 nM.

`O=C1NCCc2cc(N3CC[C@](O)(C(=O)NCc4cc(F)cc(Cl)c4)C3=O)ccc21` [A96, N-(3-Chloro-5-fluorobenzyl)-(S)-3-hydroxy-2-oxo-1-(1-oxo-1,2,3,4-tetrahydroisoquinolin-6-yl)pyrrolidine-3-carboxamide]: the IC50 is 10 to 1000 nM. In the case of `O=C1N(c2ccccc2)CCC1(O)CNCc1cc(F)cc(F)c1` (centres unmarked) [B46, 3-[(3,5-Difluorobenzylamino)-methyl]-3-hydroxy-1-phenyl-pyrrolidin-2-one] it was 10 to 1000 nM.

Regarding `O=C(NCc1cc(F)cc(Cl)c1)C1(O)CCN([C@H]2[C@@H]3CNC[C@@H]32)C1=O` (stereo partly drawn) [A229, N-(3-Chloro-5-fluorobenzyl)-1-(1S,5R,6S)-3-azabicyclo-[3.1.0]hex-6-yl-3-hydroxy-2-oxo-pyrrolidine-3-carboxamide], the IC50 was > 10000 nM.

As to `O=C(O)c1cc2cc(N3CC[C@@](O)(C(=O)NCc4cc(F)cc(Cl)c4)C3=O)ccc2[nH]1` [B85, 5-[(R)-3-(3-Chloro-5-fluorobenzylcarbamoyl)-3-hydroxy-2-oxopyrrolidin-1-yl]-1H-indole-2-carboxylic acid], the IC50 is > 10000 nM.

Regarding `O=C(c1cccc(N2CC[C@@](O)(C(=O)NCc3cc(F)cc(Cl)c3)C2=O)c1)N1CCOCC1` [A74, N-(3-Chloro-5-fluorobenzyl)-(R)-3-hydroxy-1-[3-(morpholine-4-carbonyl)phenyl]-2-oxopyrrolidine-3-carboxamide], the IC50 is > 10000 nM.

As to `CC(=O)Nc1ccc(N2CC[C@](O)(C(=O)NCc3cccc(F)c3Cl)C2=O)cn1` [B9, N-(2-Chloro-3-fluorobenzyl)-(S)-1-(6-acetylaminopyridin-3-yl)-3-hydroxy-2-oxopyrrolidine-3-carboxamide], the IC50 lay in the range of 10 to 1000 nM. For `Cc1ccc(CN2CCC(O)(C(=O)NCc3cc(F)cc(Cl)c3)C2=O)n1C` (centres unmarked) [A280, N-(3-Chloro-5-fluorobenzyl)-1-(1,5-Dimethyl-1H-pyrrol-2-ylmethyl)-3-hydroxy-2-oxo-pyrrolidine-3-carboxamide], the IC50 fell in the range of 1000 to 10000 nM.

On to `NS(=O)(=O)c1ccc(N2CC[C@](O)(C(=O)NCc3cc(F)cc(Cl)c3)C2=O)cc1` [B101, N-(3-Chloro-5-fluorobenzyl)-(S)-3-hydroxy-2-oxo-1-(4-sulfamoyl-phenyl)pyrrolidine-3-carboxamide], for which the IC50 lay in the range of 10 to 1000 nM. In the case of `CN(C)CCNC(=O)[C@@]1(O)CCN(c2ccccc2)C1=O` [A59, N-(2-Dimethylaminoethyl)-(S)-3-hydroxy-2-oxo-1-phenylpyrrolidine-3-carboxamide] it was > 10000 nM. In the case of `O=C1CCc2cc(N3CC[C@](O)(C(=O)NCCc4cccc(F)c4)C3=O)ccc2N1` [B6, N-[2-(3-Fluorophenyl)ethyl]-(S)-3-hydroxy-2-oxo-1-(2-oxo-1,2,3,4-tetrahydroquinolin-6-yl)-pyrrolidine-3-carboxamide] it was 10 to 1000 nM; in that of `OC1(CNCc2cccc(F)c2)CCCN(Cc2ccccc2)C1` (centres unmarked) [B20, 1-Benzyl-3-[(3-fluorobenzylamino)methyl]-piperidin-3-ol], > 10000 nM. In the case of `O=C(NCc1cc(F)cc(Cl)c1)C1(O)CCN(c2ccc(N3CCOCC3)nc2)C1=O` (centres unmarked) [A173, N-(3-Chloro-5-fluorobenzyl)-3-hydroxy-1-(6-morpholin-4-yl-pyridin-3-yl)-2-oxopyrrolidine-3-carboxamide] it was 10 to 1000 nM; in that of `N#CCn1cc(N2CC[C@](O)(C(=O)NCc3cc(F)cc(Cl)c3)C2=O)cn1` [B116, N-(3-Chloro-5-fluorobenzyl)-(S)-1-(1-cyanomethyl-1H-pyrazol-4-yl)-3-hydroxy-2-oxopyrrolidine-3-carboxamide], 10 to 1000 nM. For the compound `O=C(NCc1cccc(F)c1Cl)C1(O)CCN(c2ccc3[nH]ccc3c2)C1=O` (centres unmarked) [A206, N-(2-Chloro-3-fluorobenzyl)-3-hydroxy-1-(1H-indol-5-yl)-2-oxo-pyrrolidine-3-carboxamide], the IC50 lay within 10 to 1000 nM. In the case of `O=C1CCc2cc(N3CC[C@](O)(C(=O)NCc4cccc(F)c4Cl)C3=O)ccc2N1` [B15, N-(2-Chloro-3-fluorobenzyl)-(S)-3-hydroxy-2-oxo-1-(2-oxo-1,2,3,4-tetrahydroquinolin-6-yl)-pyrrolidine-3-carboxamide] it was 10 to 1000 nM; in that of `Cn1c(CN2CCC(O)(C(=O)NCc3cc(F)cc(Cl)c3)C2=O)nc2ccccc21` (centres unmarked) [A232, N-(3-Chloro-5-fluorobenzyl)-3-hydroxy-1-(1-methyl-1H-benzimidazol-2-ylmethyl)-2-oxo-pyrrolidine-3-carboxamide], 1000 to 10000 nM. In the case of `OC1(CNCc2cc(F)cc(Cl)c2)CCN(c2ccccc2)C1` (centres unmarked) [A120, 3-[(3-chloro-5-fluorobenzylamino)methyl]-1-phenylpyrrolidin-3-ol] it was > 10000 nM; in that of `O=C(NCCc1cc(F)cc(F)c1)C1(O)CCN(c2ccc3[nH]ccc3c2)C1=O` (centres unmarked) [A207, N-[2-(3,5-Difluorophenyl)ethyl]-3-hydroxy-1-(1H-indol-5-yl)-2-oxopyrrolidine-3-carboxamide], 10 to 1000 nM. In the case of `COCCn1cc(N2CC[C@](O)(C(=O)NCc3cc(F)cc(Cl)c3)C2=O)cn1` [B99, N-(3-Chloro-5-fluorobenzyl)-(S)-3-hydroxy-1-[1-(2-methoxy-ethyl)-1H-pyrazol-4-yl]-2-oxo-pyrrolidine-3-carboxamide] it was 10 to 1000 nM; in that of `CCS(=O)(=O)N1C[C@@H]2[C@H](C1)[C@H]2N1CCC(O)(C(=O)NCc2cc(F)cc(Cl)c2)C1=O` (stereo partly drawn) [A230, N-(3-Chloro-5-fluorobenzyl)-1-((1S,5R,6S)-3-ethanesulfonyl-3-azabicyclo[3.1.0]hex-6-yl)-3-hydroxy-2-oxopyrrolidine-3-carboxamide], 1000 to 10000 nM. Take `O=C1N(c2ccccc2)CCCC1(O)CNCc1cc(F)cc(Cl)c1` (centres unmarked) [B32, 3-[(3-Chloro-5-fluorobenzylamino)methyl]-3-hydroxy-1-phenylpiperidin-2-one]: the concentration for half-maximal inhibition (IC50) is 10 to 1000 nM. In the case of `CCN[C@H]1CC[C@H](N2CCC(O)(C(=O)NCc3cc(F)cc(Cl)c3)C2=O)CC1` (some centres unmarked) [A127, N-(3-Chloro-5-fluorobenzyl)-1-(4-ethylaminocyclohexyl)-3-hydroxy-2-oxopyrrolidine-3-carboxamide] it was 1000 to 10000 nM; in that of `NC(=O)c1cc2cc(N3CCC(O)(C(=O)NCc4cc(F)cc(Cl)c4)C3=O)ccc2[nH]1` (centres unmarked) [A211, 5-[3-(3-Chloro-5-fluorobenzylcarbamoyl)-3-hydroxy-2-oxopyrrolidin-1-yl]-1H-indole-2-carboxamide], 10 to 1000 nM.
